# Results reported in patent publication US10208033B2, “β-carboline, dihydro-β-carboline and tetrahydro-β-carboline alkaloid derivatives and preparation methods same and use in aspects of preventing and treating plant viruses, fungicides and insecticides” (NANKAI UNIVERSITY, priority 2013, dated 2019).
# Experiments:
# Macrophoma kawatsukai = assay: Fungicidal (bactericidal) activity in vitro, PDA colony diameter; assay type: cell-based; conditions: 50 mg/kg
# Rhizoctonia solani = assay: as above; assay type: cell-based; conditions: Rhizoctonia solani, 96 h; 50 mg/kg
# [1] = tested on: tobacco mosaic virus (TMV); assay: Anti-TMV in vitro effect (half-leaf soaking); assay type: cell-based, tobacco mosaic virus (host Nicotiana tabacum L.cv.Xanthi NN); conditions: Tobacco mosaic virus, read-out: Relative inhibition rate (%) In vitro activity; for inhibition at 100 µg/mL: treatment dose 100 μg/mL; for inhibition at 500 µg/mL: treatment dose 500 μg/mL
# Alternaria solani = assay: Fungicidal (bactericidal) activity in vitro, PDA colony diameter; assay type: cell-based; conditions: Alternaria solani, 96 h; 50 mg/kg
# cotton bollworms = assay: whole plant or invertebrate; conditions: Helicoverpa armigera, in Gossypium hirsutum, read-out: Cotton bollworm Mortality (%)
# Protocol: Experimental method of cotton bollworms: feed and drug mixing method: measure 3 mL of prepared solution and add it to about 27 g of newly prepared feed, thereby obtaining needed concentration through dilution by 10 times.
# armyworms = assay type: in vivo; conditions: concentration 600 mg/kg
# [2] = tested on: tobacco mosaic virus (TMV); assay: Anti-TMV in vivo therapeutic effect; set-up: species or system tobacco mosaic virus (host Nicotiana tabacum L.cv.Xanthi NN); conditions: Tobacco mosaic virus, read-out: Relative inhibition rate (%) In vivo therapy; for inhibition at 100 µg/mL: treatment dose 100 μg/mL; for inhibition at 500 µg/mL: treatment dose 500 μg/mL
# [3] = tested on: Colletotrichum orbiculare; assay: Fungicidal (bactericidal) activity in vitro, PDA colony diameter; assay type: cell-based; conditions: Colletotrichum orbiculare, 96 h; 50 mg/kg
# Rhizoctonia cereali = assay: as above; assay type: cell-based; conditions: Rhizoctonia, 96 h; 50 mg/kg
# Bipolaria maydis = assay: organism not typed; assay type: cell-based; conditions: read-out: Bactericidal activity (%) Bipolaria maydis
# Fusarium fujikuroi = assay: Fungicidal (bactericidal) activity in vitro, PDA colony diameter; assay type: cell-based; conditions: Fusarium fujikuroi, 96 h; 50 mg/kg
# mosquito larvae = assay: whole plant or invertebrate; conditions: Culex pipiens, 24 h, read-out: Mosquito larvae Mortality (%)
# Method in brief: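 Early fourth-instar Culex pipiens pallens larvae from an indoor colony, 10 per beaker, exposed to test compound at 5 ppm in water, diluted from a 1000 ppm acetone mother solution. Blank: water containing 0.5 mL test solvent.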
# Cercospora arachidicola = assay: Fungicidal (bactericidal) activity in vitro, PDA colony diameter; assay type: cell-based; conditions: Mycosphaerella arachidis, 96 h; 50 mg/kg
# cucumber fusarium wilt = assay: as above; assay type: cell-based; conditions: Fusarium, 96 h; 50 mg/kg
# corn borers = assay: whole plant or invertebrate; conditions: read-out: Corn borer Mortality (%)
# Fusarium graminearumt = assay: microbe, parasite or virus in culture; assay type: cell-based; conditions: Fusarium, 96 h, read-out: Bactericidal activity (%) Fusarium graminearumt
# Sclerotinia scleotiorum = assay: Fungicidal (bactericidal) activity in vitro, PDA colony diameter; assay type: cell-based; conditions: Sclerotinia, 96 h; 50 mg/kg
# potato late blight = assay: microbe, parasite or virus in culture; assay type: cell-based; conditions: Phytophthora infestans, 96 h, read-out: Bactericidal activity (%) potato late blight
# [4] = tested on: tobacco mosaic virus (TMV); assay: Anti-TMV in vivo protective effect; set-up: species or system tobacco mosaic virus (host Nicotiana tabacum L.cv.Xanthi NN); conditions: Tobacco mosaic virus, read-out: Relative inhibition rate (%) In vivo protection; for inhibition at 100 µg/mL: treatment dose 100 μg/mL; for inhibition at 500 µg/mL: treatment dose 500 μg/mL
# [5] = tested on: tobacco mosaic virus (TMV); assay: Anti-TMV in vivo inactivation; set-up: species or system tobacco mosaic virus (host Nicotiana tabacum L.cv.Xanthi NN); conditions: Tobacco mosaic virus, read-out: Relative inhibition rate (%) In vivo inactivation; for inhibition at 100 µg/mL: treatment dose 100 μg/mL; for inhibition at 500 µg/mL: treatment dose 500 μg/mL
# Botrytis cinerea = assay: Fungicidal (bactericidal) activity in vitro, PDA colony diameter; assay type: cell-based; conditions: Botrytis cinerea, 96 h; 50 mg/kg
# Phytophthora capsici = assay: as above; assay type: cell-based; conditions: Phytophthora capsici, 96 h; 50 mg/kg
Structure (SMILES),inhibition at 50 mg/kg (Macrophoma kawatsukai),inhibition of growth at 50 mg/kg (Rhizoctonia solani),inhibition at 100 µg/mL [1],inhibition at 500 µg/mL [1],inhibition of growth at 50 mg/kg (Alternaria solani),mortality at 600 mg/kg (cotton bollworms),Armyworm Mortality (%) (armyworms),inhibition at 100 µg/mL [2],inhibition at 500 µg/mL [2],inhibition of growth at 50 mg/kg [3],inhibition of growth at 50 mg/kg (Rhizoctonia cereali),inhibition at 50 mg/kg (Bipolaria maydis),inhibition of growth at 50 mg/kg (Fusarium fujikuroi),mortality at 10 mg/kg (mosquito larvae),inhibition of growth at 50 mg/kg (Cercospora arachidicola),inhibition of growth at 50 mg/kg (cucumber fusarium wilt),mortality at 600 mg/kg (corn borers),inhibition of growth at 50 mg/kg (Fusarium graminearumt),inhibition of growth at 50 mg/kg (Sclerotinia scleotiorum),inhibition of growth at 50 mg/kg (potato late blight),also measured
"Cc1nc(C(=O)O)cc2c1[nH]c1ccccc12 [Ia-11, 1-methyl-pyridino [3,4-b] indol-3-formic acid]",82.4%,42.9%,0%,32.5%,33.3%,10%,10%,0%,29.6%,38.1%,53.1%,21.1%,35.7%,50%,50%,19.1%,10%,35.7%,72%,25%,inhibition at 100 µg/mL [4]: 0%; inhibition at 500 µg/mL [4]: 21.4%; inhibition at 100 µg/mL [5]: 0%; inhibition at 500 µg/mL [5]: 27.3%; inhibition of growth at 50 mg/kg (Botrytis cinerea): 63.6%; inhibition of growth at 50 mg/kg (Phytophthora capsici): 60.6%
"C[C@@H]1N[C@H](C(=O)O)Cc2c1[nH]c1ccccc21 [Ib-1, (1S, 3S)-1-methyl-2,3,4,9-tetrahydropyridino [3,4-b] indol-3-formic acid]",23.8%,26.3%,18.9%,41.6%,21.1%,25%,25%,15.8%,40.4%,35.7%,42.1%,22.7%,21.4%,55%,30.8%,19.2%,25%,26.2%,7.8%,27.3%,inhibition at 100 µg/mL [4]: 20%; inhibition at 500 µg/mL [4]: 41.3%; inhibition at 100 µg/mL [5]: 13.5%; inhibition at 500 µg/mL [5]: 35.5%; inhibition of growth at 50 mg/kg (Botrytis cinerea): 21.2%; inhibition of growth at 50 mg/kg (Phytophthora capsici): 18.8%
"C[C@H]1N[C@@H](C(=O)O)Cc2c1[nH]c1ccccc21 [Ib-2, (1R,3R)-1-methyl-2,3,4,9-tetrahydropyridino [3,4-b] indol-3-formic acid]",23.8%,29%,0%,25%,0%,25%,10%,0%,31.5%,25%,31.6%,9.1%,0%,30%,61.5%,23.1%,10%,21.4%,23.5%,4.6%,inhibition at 100 µg/mL [4]: 0%; inhibition at 500 µg/mL [4]: 29.7%; inhibition at 100 µg/mL [5]: 0%; inhibition at 500 µg/mL [5]: 28.6%; inhibition of growth at 50 mg/kg (Botrytis cinerea): 18.2%; inhibition of growth at 50 mg/kg (Phytophthora capsici): 15.6%
"O=C(O)[C@@H]1Cc2c([nH]c3ccccc23)[C@H](c2ccccc2)N1 [Ib-5, (1S, 3S)-1-phenyl-2,3,4,9-tetrahydropyridino [3,4-b] indol-3-formic acid]",11.9%,36.8%,0%,19.7%,15.8%,30%,50%,0%,24.3%,35.7%,44.7%,22.7%,42.9%,100%,69.2%,19.2%,35%,26.2%,9.8%,22.7%,mortality at 5 mg/kg (mosquito larvae): 30%; inhibition at 100 µg/mL [4]: 0%; inhibition at 500 µg/mL [4]: 32.3%; inhibition at 100 µg/mL [5]: 0%; inhibition at 500 µg/mL [5]: 27.6%; inhibition of growth at 50 mg/kg (Botrytis cinerea): 21.2%; inhibition of growth at 50 mg/kg (Phytophthora capsici): 12.5%
"C[C@@H]1N[C@H](C(=O)NC2CCCCC2)Cc2c1[nH]c1ccccc21 [Ib-17, (1S, 3S)—N-cyclohexyl-1-methyl-2,3,4,9-tetrahydro-pyridino [3,4-b] indol-3-formamide]",47.6%,50%,0%,38.8%,52.6%,30%,45%,15.1%,44.6%,50%,71.1%,45.5%,28.6%,100%,69.2%,34.6%,40%,59.5%,33.3%,31.8%,mortality at 5 mg/kg (mosquito larvae): 10%; inhibition at 100 µg/mL [4]: 14.2%; inhibition at 500 µg/mL [4]: 37.1%; inhibition at 100 µg/mL [5]: 12.3%; inhibition at 500 µg/mL [5]: 43.3%; inhibition of growth at 50 mg/kg (Botrytis cinerea): 27.3%; inhibition of growth at 50 mg/kg (Phytophthora capsici): 37.5%
"C[C@@H]1N[C@H](C(=O)NCN(C)C)Cc2c1[nH]c1ccccc21 [Ib-19, (1S, 3S)—N-((dimethylamino)methyl)-1-methyl-2,3,4,9-tetrahydro-pyridino [3,4-b] indol-3-formamide]",55.6%,26.3%,0%,26.6%,25%,60%,5%,0%,20.9%,25.9%,47.1%,24%,21.4%,20%,41.2%,19.2%,10%,27.6%,35.3%,20%,inhibition at 100 µg/mL [4]: 0%; inhibition at 500 µg/mL [4]: 24.7%; inhibition at 100 µg/mL [5]: 0%; inhibition at 500 µg/mL [5]: 18.5%; inhibition of growth at 50 mg/kg (Botrytis cinerea): 27.3%; inhibition of growth at 50 mg/kg (Phytophthora capsici): 7.9%
